Source: the NIST ThermoML archive (doi:10.1021/je700339f)
Numbers after ± are expanded uncertainties.

Settings: 101.33 kPa, Liquid

Row | mass density (298.15 K) [kg/m3] | mass density (308.15 K) [kg/m3] | Structure (SMILES)
1 | 937 ± 0.4 | 926.9 ± 0.4 | CC(=O)N(C)C [N,N-dimethylethanamide]
2 | 943.8 ± 0.4 | 934.2 ± 0.4 | CN(C)C=O [dimethylformamide]
